Counter-ions that a name gives are not always drawn.
What was measured:
Format in all cases: in vivo
[1] = tested on: cerebral anoxia induced by potassium cyanide; test: Activity for protecting cerebral anoxia induced by potassium cyanide (survival time); conditions: 10 mg/kg orally, mice; potassium cyanide 2.4 mg/kg tail vein one hour later
mice = test: Acute oral toxicity in mice; conditions: 500 mg/kg orally, 7 days
From the text: The compounds (I) of this invention can inhibit the calcium entrance into the cerebral synaptosome and show excellent central calcium antagonistic activity and/or excellent calcium antagonistic activity in cerebral blood vessel, and can be used for the treatment and prophylaxis of cerebral diseases due to cerebral blood flow disorder at acute and chronic periods, for example, subarachnoid hemorrhage, cerebral infarction, etc. The compounds (I) of this invention have also an activity for protecting cerebral neurocyte. For example, when 2-(4-chlorophenyl)-4-(diethylamino)acetyl-3,4-dihydro-2H-1,4-benzothiazinewas intraperitoneally administered to evanescent cerebral ischemic rats with ligating four vessels in a dose of 1.5 mg/kg twice a day for four days, it increased the number of normal pyramidal cells at hippocampul CA1 region in about 90% in comparison with the non-medicated group. Accordingly, the compounds (I) of this invention can effectively be used for the prophylaxis, treatment and amelioration of sequelae of cerebral neurocyte dyscrasia, for example, disturbances of consciousness (e.g. somnolenz, sopor, coma, stupor, clouding of consciousness, etc.), motor paralysis (e.g. parkinsonism, etc.), cerebral neuropathy (e.g. dysuria, etc.), speech and language disorders (e.g. articulation disorders, aphasia, semantic aphasia, etc.), sensitive disorders (e.g. pain, sysesthesia, heat sensibility disorder, etc.), psychological disorders (e.g. dementia, hallucination, delusion, delirium, poriomania, melancholia, neurosis, emotional incontinence, etc.), and the like, and further the prophylaxis of palindromia and also the prophylaxis of exacerbation and progression of the symptoms. […] In addition, the compounds (I) of this invention have low toxicity and has high safety.

[2] = tested on: normal pyramidal cells at hippocampul CA1 region; test: Number of normal pyramidal cells in evanescent cerebral ischemic rats with ligating four vessels; conditions: 1.5 mg/kg intraperitoneally twice a day for four days, four vessels ligated
From the text: The compounds (I) of this invention can inhibit the calcium entrance into the cerebral synaptosome and show excellent central calcium antagonistic activity and/or excellent calcium antagonistic activity in cerebral blood vessel, and can be used for the treatment and prophylaxis of cerebral diseases due to cerebral blood flow disorder at acute and chronic periods, for example, subarachnoid hemorrhage, cerebral infarction, etc. The compounds (I) of this invention have also an activity for protecting cerebral neurocyte. For example, when 2-(4-chlorophenyl)-4-(diethylamino)acetyl-3,4-dihydro-2H-1,4-benzothiazinewas intraperitoneally administered to evanescent cerebral ischemic rats with ligating four vessels in a dose of 1.5 mg/kg twice a day for four days, it increased the number of normal pyramidal cells at hippocampul CA1 region in about 90% in comparison with the non-medicated group. […]

## 4-(dimethylamino)acetyl-2-(4-fluorophenyl)-3,4-dihydro-2H-1,4-benzothiazine oxalate [Example 1]
[1]
  Prolonging rate of survival time: 62%

## CCN(CC)CC(=O)N1CC(c2ccc(Cl)cc2)Sc2ccccc21 (centres unmarked) [2-(4-chlorophenyl)-4-(diethylamino)acetyl-3,4-dihydro-2H-1,4-benzothiazineoxalate]
mice
  mortality of mice: no mouse died even after 7 days

## CCN(CC)CC(=O)N1CC(c2ccc(Cl)cc2)Sc2ccccc21 (centres unmarked) [2-(4-chlorophenyl)-4-(diethylamino)acetyl-3,4-dihydro-2H-1,4-benzothiazine]
[2]
  increase of the number of normal pyramidal cells at hippocampul CA1 region in comparison with the non-medicated group: about 90%

## CN(C)CCCN1C(=O)C(c2cccc(C(F)(F)F)c2)Sc2ccc3ccccc3c21.O=C(O)C(=O)O (centres unmarked) [1-[3-(dimethylamino)propyl]-3-(3-trifluoromethylphenyl)-1H-naphtho[2,1-b][1,4]thiazin-2(3H)-one oxalate]
mice
  mortality of mice: no mouse died even after 7 days

## CCN(CC)CC(=O)N1CC(c2ccc(Cl)cc2)Sc2ccc3ccccc3c21 (centres unmarked) [3-(4-chlorophenyl)-1-(diethylamino)acetyl-2,3-dihydro-1H-naphtho[2,1-b][1,4]thiazine oxalate]
mice
  mortality of mice: no mouse died even after 7 days
